Test results reported in patent publication US20140303105A1, “Primycin and components thereof for use in the treatment or prevention of infections caused by specific pathogens” (PANNONPHARMA GYÓGYSZERGYÁRTÓ ZRT., priority 2011, published 2014).
Where two headings read alike, the source gives them in different places.

Experiments:
Enterobacter cloacae = settings: by Bryskier; cited from earlier work
Streptococcus mitis = settings: by Bryskier; cited from earlier work
Escherichia coli B 1218 = settings: cited from earlier work
S. aureus = settings: by Bryskier; cited from earlier work
Propionibacterium acnes [1] = settings: cited from earlier work
[2] = system: Staphylococcus hominis 7835; settings: cited from earlier work
[3] = system: Staphylococcus epidermidis; settings: by Bryskier; cited from earlier work
[4] = system: Streptococcus simulans 7866; settings: cited from earlier work
Propionibacterium acnes [5] = settings: by Bryskier; cited from earlier work
[6] = system: Bacillus subtilis ATCC 6633; settings: cited from earlier work
[7] = system: Serotype β Streptococcus 8252; settings: cited from earlier work
[8] = system: Staphylococcus saprophyticus 8454; settings: cited from earlier work
[9] = system: Staphylococcus epidermidis 7586; settings: cited from earlier work
Micrococcus = settings: by Bryskier; cited from earlier work
Escherichia coli = settings: by Bryskier; cited from earlier work
[10] = system: Enterobacter cloacae B 520; settings: cited from earlier work
[11] = system: Staphylococcus aureus 7503; settings: cited from earlier work
Staphylococcus capitis = settings: cited from earlier work
S. aureus ATCC 25923 = settings: by Bryskier; cited from earlier work
Coryneform(s) = settings: by Bryskier; cited from earlier work
B. subtilis ATCC 6633 = settings: by Bryskier; cited from earlier work
S. pyogenes = settings: by Bryskier; cited from earlier work
[12] = system: Staphylococcus aureus ATCC 25923; settings: cited from earlier work
Micrococcus spp. = settings: cited from earlier work
Streptococcus mitis 5728 = settings: cited from earlier work
Diphteroides 8264 = settings: cited from earlier work
[13] = system: Streptococcus viridans sp.; test: Standard microdilution susceptibility test, clinical isolates; assay type: cell-based; settings: for MIC50 / MIC90: Streptococcus viridans
[14] = system: Coagulase-negative Staphylococus sp., methicillin resistant; test: as above; assay type: cell-based
[15] = system: Staphylococcus aureus, methicillin resistant; test: as above; assay type: cell-based; settings: for MIC50 / MIC90: Staphylococcus aureus
[16] = system: Staphylococcus aureus, methicillin susceptible; test: as above; assay type: cell-based; settings: for MIC50 / MIC90: Staphylococcus aureus
[17] = system: Coagulase-negative Staphylococus sp., methicillin susceptible; test: as above; assay type: cell-based
[18] = system: Streptococcus pneumoniae, penicillin resistant; test: as above; assay type: cell-based; settings: for MIC50 / MIC90: Streptococcus pneumoniae
[19] = system: Streptococcus pneumoniae, penicillin susceptible; test: as above; assay type: cell-based; settings: for MIC50 / MIC90: Streptococcus pneumoniae
[20] = system: Enterococcus sp., vancomycin susceptible; test: as above; assay type: cell-based; settings: for MIC50 / MIC90: Enterococcus
E. casseliflavus = test: Microdilution MIC, Enterococcus isolates with van resistance genes; assay type: cell-based; settings: Enterococcus casseliflavus
Description: Identification and characterization of resistance patterns of these bacteria were performed by standard methods.
When forming the test groups we attached great importance to the increasing incidence of drug-resistant microbes causing therapeutic problems. Most important of them are methicillin-resistant Staphylococcus aureus (MRSA), methicillin-resistant coagulase-negative Staphylococcus spp. (MRCoNS), penicillin-resistant Streptococcus pneumoniae (pneumococcus), vancomycin-resistant Enterococcus spp. (VRE). Pneumococcus isolates represented various serotypes, VRE isolates belonged to various species. Moreover, vancomycin-resistance of VRE isolates was based on different genetic backgrounds. Antibiotic-resistant strains were also represented among international reference strains, for example methicillin-resistant Staphylococcus aureus ATCC 43300 (MRSA), Staphylococcus aureus with decreased vancomycin susceptibility ATCC 700698 and 700699 (vancomycin intermediate Staphylococcus aureus—VISA), mupirocin-resistant Staphylococcus aureus ATCC BAA1708 and vancomycin-resistant Enterococcus faecalis ATCC 51299 (VRE).
Susceptibility tests were performed according to the standard microdilution method (NCCLS (CLSI) M7-A7).
The lowest concentration at which no bacterial growth was observed after the incubation period is the Minimal Inhibitory Concentration (MIC). The MIC value is inversely proportional to the antimicrobial efficacy. MIC values of antimicrobial agents can differ by species or even by bacterial strains within species.

[21] = system: Enterococcus sp., decreased vancomycin susceptibility; test: Standard microdilution susceptibility test, clinical isolates; assay type: cell-based; settings: 5 clinical isolates
[22] = 20 clinical isolates, read-out: MIC 50%
[23] = 20 clinical isolates, read-out: MIC 90%
[24] = 10 clinical isolates, read-out: MIC 50%
[25] = 10 clinical isolates, read-out: MIC 90%

CC1(C)S[C@@H]2[C@H](NC(=O)[C@H](N)c3ccccc3)C(=O)N2[C@H]1C(=O)O [Ampicillin]
2.0 µg/mL: MIC (Escherichia coli B 1218) | MIC (Escherichia coli)
<0.5 µg/mL: MIC (S. aureus) | MIC [2] | MIC [3] | MIC [4] | MIC [6] | MIC [7] | MIC [8] | MIC [9] | MIC (Micrococcus) | MIC [11] | MIC (Staphylococcus capitis) | MIC (S. aureus ATCC 25923) | MIC (B. subtilis ATCC 6633) | MIC (S. pyogenes) | MIC [12] | MIC (Micrococcus spp.)
1.0 µg/mL: MIC (Propionibacterium acnes [1]) | MIC (Propionibacterium acnes [5])
7.8 µg/mL: MIC (Enterobacter cloacae) | MIC (Streptococcus mitis) | MIC [10] | MIC (Streptococcus mitis 5728)
31.3 µg/mL: MIC (Coryneform(s)) | MIC (Diphteroides 8264)

CC[C@H]1OC(=O)[C@H](C)[C@@H](O[C@H]2C[C@@](C)(OC)[C@@H](O)[C@H](C)O2)[C@H](C)[C@@H](O[C@@H]2O[C@H](C)C[C@H](N(C)C)[C@H]2O)[C@](C)(O)C[C@@H](C)C(=O)[C@H](C)[C@@H](O)[C@]1(C)O [Erythromycin]
<0.5 µg/mL: MIC (Propionibacterium acnes [1]) | MIC [3] | MIC (Propionibacterium acnes [5]) | MIC [6] | MIC [9] | MIC (Micrococcus) | MIC (Staphylococcus capitis) | MIC (B. subtilis ATCC 6633) | MIC (Micrococcus spp.)
250 µg/mL: MIC (Enterobacter cloacae) | MIC (Streptococcus mitis) | MIC [2] | MIC [10] | MIC (Streptococcus mitis 5728)
> 16 µg/mL: MIC90 [13, 23] | MIC90 [14, 25] | MIC50 [15, 24] | MIC90 [15, 25] | MIC90 [16, 25] | MIC90 [17, 25] | MIC90 [18, 25] | MIC90 [20, 23]
0.5 µg/mL: MIC [7] | MIC (S. pyogenes)
2 µg/mL: MIC50 [18, 24]
0.25 µg/mL: MIC50 [14, 24]
>250 µg/mL: MIC (S. aureus) | MIC [11] | MIC (Coryneform(s)) | MIC (Diphteroides 8264)
0.03 µg/mL: MIC50 [19, 24] | MIC90 [19, 25]
1 µg/mL: MIC50 [13, 22] | MIC50 [20, 22]
7.8 µg/mL: MIC [4]
1.0 µg/mL: MIC [8] | MIC (S. aureus ATCC 25923) | MIC [12]
62.5 µg/mL: MIC (Escherichia coli B 1218) | MIC (Escherichia coli)
0.125 µg/mL: MIC50 [16, 24] | MIC50 [17, 24]

CN[C@H](CC(C)C)C(=O)N[C@H]1C(=O)N[C@@H](CC(N)=O)C(=O)N[C@H]2C(=O)N[C@H]3C(=O)N[C@H](C(=O)N[C@H](C(=O)O)c4cc(O)cc(O)c4-c4cc3ccc4O)[C@H](O)c3ccc(c(Cl)c3)Oc3cc2cc(c3O[C@@H]2O[C@H](CO)[C@@H](O)[C@H](O)[C@H]2O[C@H]2C[C@](C)(N)[C@H](O)[C@H](C)O2)Oc2ccc(cc2Cl)[C@H]1O [Vancomycin]
1 to 4 µg/mL: MIC Range ([20]; 20 clinical isolates)
1 µg/mL: MIC90 [13] | MIC50 [15] | MIC90 [15] | MIC50 [16] | MIC90 [16] | MIC50 [17] | MIC50 [20]
2 µg/mL: MIC50 [14] | MIC90 [14] | MIC90 [17] | MIC90 [20]
10/20: Ratio of Sensitive/Total ([13]; 20 clinical isolates)
1 to 2 µg/mL: MIC Range ([14]; 10 clinical isolates) | MIC Range ([17]; 10 clinical isolates)
16 µg/mL: MIC (E. casseliflavus; resistance gene van C1)
0.5 to 1 µg/mL: MIC Range ([13]; 20 clinical isolates) | MIC Range ([15]; 10 clinical isolates)
8 µg/mL: MIC (E. casseliflavus; resistance gene van C2)
0.25 to 0.5 µg/mL: MIC Range ([18]; 10 clinical isolates) | MIC Range ([19]; 10 clinical isolates)
0.5 µg/mL: MIC50 [13] | MIC50 [18] | MIC90 [18] | MIC50 [19] | MIC90 [19]
10/10: Ratio of Sensitive/Total ([14]; 10 clinical isolates) | Ratio of Sensitive/Total ([15]; 10 clinical isolates) | Ratio of Sensitive/Total ([16]; 10 clinical isolates) | Ratio of Sensitive/Total ([17]; 10 clinical isolates) | Ratio of Sensitive/Total ([18]; 10 clinical isolates) | Ratio of Sensitive/Total ([19]; 10 clinical isolates)
20/20: Ratio of Sensitive/Total ([20]; 20 clinical isolates)
0.5 to 2 µg/mL: MIC Range ([16]; 10 clinical isolates)
0/5: Ratio of Sensitive/Total [21]
